Test results taken from US20090105270A1, “Kinase inhibition and anticancer therapy” (priority 2007, published 2009).

Tests used:
Lyn(h) = target: T1, Lyn(h) (Homo sapiens, UniProt P07948); assay: Upstate kinase activity inhibition assay Lyn(h); format: biochemical; settings: 40 min; read-out: percentage of enzyme activity that remains
T1 construct: purchased Upstate (KinaseProfiler service)

IRAK1(h) = IRAK1(h) (Homo sapiens, UniProt P51617); assay: Upstate kinase activity inhibition assay IRAK1(h); settings: 40 min, read-out: percentage of enzyme activity that remains
Fms(h) = Fms(h) (Homo sapiens, UniProt P07333); assay: Upstate kinase activity inhibition assay Fms(h); settings: 40 min, read-out: percentage of enzyme activity that remains
Plk3(h) = Plk3(h) (Homo sapiens, UniProt Q9H4B4); assay: Upstate kinase activity inhibition assay Plk3(h); settings: 40 min, read-out: percentage of enzyme activity that remains
MRCKβ(h) = target: T2, MRCKβ(h) (Homo sapiens, UniProt Q9Y5S2); assay: Upstate kinase activity inhibition assay MRCKβ(h); format: biochemical; settings: 40 min; read-out: percentage of enzyme activity that remains
T2 construct: purchased Upstate (KinaseProfiler service)

LOK(h) = LOK(h) (Homo sapiens, UniProt O94804); assay: Upstate kinase activity inhibition assay LOK(h)
ITK(h) = ITK(h) (Homo sapiens, UniProt Q08881); assay: Upstate kinase activity inhibition assay ITK(h); settings: 4 μM Compound E
EphA8(h) = target: T3, EphA8(h) (Homo sapiens, UniProt P29322); assay: Upstate kinase activity inhibition assay EphA8(h); format: biochemical; settings: 40 min; read-out: percentage of enzyme activity that remains
T3 construct: purchased Upstate (KinaseProfiler service)

MLCK(h) = MLCK(h) (Homo sapiens, UniProt Q9H1R3); assay: Upstate kinase activity inhibition assay MLCK(h); settings: 40 min, read-out: percentage of enzyme activity that remains
Rsk2(h) = Rsk2(h) (Homo sapiens, UniProt P51812); assay: Upstate kinase activity inhibition assay Rsk2(h); settings: 40 min, read-out: percentage of enzyme activity that remains
Rsk2(h), sequence (P51812 whole entry): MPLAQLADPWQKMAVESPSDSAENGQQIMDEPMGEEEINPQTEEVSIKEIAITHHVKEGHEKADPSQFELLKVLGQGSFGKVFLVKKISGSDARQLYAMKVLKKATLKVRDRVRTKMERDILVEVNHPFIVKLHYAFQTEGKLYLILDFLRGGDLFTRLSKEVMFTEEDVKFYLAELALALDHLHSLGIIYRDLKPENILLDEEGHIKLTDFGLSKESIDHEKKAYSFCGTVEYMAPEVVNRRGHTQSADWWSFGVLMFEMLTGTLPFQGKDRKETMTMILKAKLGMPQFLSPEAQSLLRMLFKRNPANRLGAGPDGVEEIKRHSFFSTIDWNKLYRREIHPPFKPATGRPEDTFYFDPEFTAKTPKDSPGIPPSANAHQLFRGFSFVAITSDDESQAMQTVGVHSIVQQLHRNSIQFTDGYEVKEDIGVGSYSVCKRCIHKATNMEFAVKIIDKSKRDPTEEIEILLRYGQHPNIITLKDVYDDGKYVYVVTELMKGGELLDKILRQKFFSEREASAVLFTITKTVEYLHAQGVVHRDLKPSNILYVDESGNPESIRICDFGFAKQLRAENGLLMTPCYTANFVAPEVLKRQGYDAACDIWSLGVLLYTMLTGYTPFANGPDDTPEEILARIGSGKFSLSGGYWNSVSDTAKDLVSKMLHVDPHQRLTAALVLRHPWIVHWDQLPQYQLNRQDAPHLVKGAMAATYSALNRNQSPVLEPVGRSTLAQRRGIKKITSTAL

BrSK1(h) = target: T4, BrSK1(h) (Homo sapiens, UniProt Q8TDC3); assay: Upstate kinase activity inhibition assay BrSK1(h); format: biochemical; settings: 40 min; read-out: percentage of enzyme activity that remains
T4 construct: purchased Upstate (KinaseProfiler service)

Fgr(h) = Fgr(h) (Homo sapiens, UniProt P09769); assay: Upstate kinase activity inhibition assay Fgr(h); settings: 40 min, read-out: percentage of enzyme activity that remains
ALK(h) = target: T5, ALK(h) (Homo sapiens, UniProt Q9UM73); assay: Upstate kinase activity inhibition assay ALK(h); format: biochemical; settings: 40 min; read-out: percentage of enzyme activity that remains
T5 construct: purchased Upstate (KinaseProfiler service)
T5 sequence (Q9UM73 19-1620): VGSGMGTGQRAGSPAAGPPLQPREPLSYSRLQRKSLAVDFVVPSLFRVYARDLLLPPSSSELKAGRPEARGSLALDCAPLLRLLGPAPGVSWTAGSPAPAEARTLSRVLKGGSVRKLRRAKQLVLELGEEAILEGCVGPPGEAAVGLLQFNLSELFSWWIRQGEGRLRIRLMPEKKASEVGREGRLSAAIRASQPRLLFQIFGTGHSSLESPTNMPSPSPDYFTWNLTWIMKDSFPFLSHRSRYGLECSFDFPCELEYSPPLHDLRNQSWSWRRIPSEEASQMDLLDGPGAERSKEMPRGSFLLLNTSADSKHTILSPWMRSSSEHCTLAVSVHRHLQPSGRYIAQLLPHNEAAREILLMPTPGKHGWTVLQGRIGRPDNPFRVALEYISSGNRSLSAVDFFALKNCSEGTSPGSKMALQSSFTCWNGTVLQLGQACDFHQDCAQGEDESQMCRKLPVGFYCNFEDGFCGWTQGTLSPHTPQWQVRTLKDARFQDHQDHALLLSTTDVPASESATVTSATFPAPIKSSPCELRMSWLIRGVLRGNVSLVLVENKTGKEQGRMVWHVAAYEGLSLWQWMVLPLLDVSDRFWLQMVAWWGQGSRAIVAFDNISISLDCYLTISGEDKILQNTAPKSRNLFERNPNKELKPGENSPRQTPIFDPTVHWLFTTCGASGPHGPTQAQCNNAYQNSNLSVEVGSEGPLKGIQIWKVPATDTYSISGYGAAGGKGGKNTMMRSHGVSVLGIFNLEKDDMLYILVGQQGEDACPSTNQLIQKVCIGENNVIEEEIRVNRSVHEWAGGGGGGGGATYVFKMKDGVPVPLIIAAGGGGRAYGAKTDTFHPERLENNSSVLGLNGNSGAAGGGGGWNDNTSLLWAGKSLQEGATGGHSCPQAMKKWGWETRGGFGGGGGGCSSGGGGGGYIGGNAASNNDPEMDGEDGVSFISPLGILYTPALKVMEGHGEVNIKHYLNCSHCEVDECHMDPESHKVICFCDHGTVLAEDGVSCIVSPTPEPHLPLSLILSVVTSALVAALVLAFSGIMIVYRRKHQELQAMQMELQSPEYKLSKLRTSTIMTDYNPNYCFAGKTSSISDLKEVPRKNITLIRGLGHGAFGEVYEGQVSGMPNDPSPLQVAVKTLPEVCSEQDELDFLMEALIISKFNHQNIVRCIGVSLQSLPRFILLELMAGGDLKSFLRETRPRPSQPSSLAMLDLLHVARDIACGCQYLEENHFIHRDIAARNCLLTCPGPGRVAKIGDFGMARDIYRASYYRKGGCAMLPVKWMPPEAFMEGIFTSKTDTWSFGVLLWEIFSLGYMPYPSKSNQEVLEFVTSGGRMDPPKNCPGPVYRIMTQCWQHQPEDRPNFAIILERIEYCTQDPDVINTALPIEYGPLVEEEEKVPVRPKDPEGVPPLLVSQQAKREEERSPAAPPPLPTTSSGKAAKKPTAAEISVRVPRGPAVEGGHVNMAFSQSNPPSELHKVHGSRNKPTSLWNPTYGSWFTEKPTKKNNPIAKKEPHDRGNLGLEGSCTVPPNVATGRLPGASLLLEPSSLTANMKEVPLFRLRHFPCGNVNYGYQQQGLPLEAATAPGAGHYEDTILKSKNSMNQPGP

CDK2/cyclinE(h) = target: T6, CDK2/cyclinE(h) (Homo sapiens, UniProt P24941); assay: Upstate kinase activity inhibition assay CDK2/cyclinE(h); format: biochemical; settings: 4 μM Compound E
T6 construct: purchased Upstate (KinaseProfiler service)

HIPK2(h) = HIPK2(h) (Homo sapiens, UniProt Q9H2X6); assay: Upstate kinase activity inhibition assay HIPK2(h); settings: 40 min, read-out: percentage of enzyme activity that remains
SAPK2a(h) = SAPK2a(h) (Homo sapiens, UniProt Q16539); assay: Upstate kinase activity inhibition assay SAPK2a(h)
CDK2/cyclinA(h) = target: T7, CDK2/cyclinA(h) (Homo sapiens, UniProt P24941); assay: Upstate kinase activity inhibition assay CDK2/cyclinA(h); format: biochemical; settings: 0.2 μM Compound E
T7 construct: purchased Upstate (KinaseProfiler service)

PAK4(h) = PAK4(h) (Homo sapiens, UniProt O96013); assay: Upstate kinase activity inhibition assay PAK4(h); settings: 40 min, read-out: percentage of enzyme activity that remains
PKBα(h) = target: T8, PKBα(h) (Homo sapiens, UniProt P31749); assay: Upstate kinase activity inhibition assay PKBα(h); format: biochemical; settings: 40 min; read-out: percentage of enzyme activity that remains
T8 construct: purchased Upstate (KinaseProfiler service)

TrkB(h) = TrkB(h) (Homo sapiens, UniProt Q16620); assay: Upstate kinase activity inhibition assay TrkB(h); settings: 40 min, read-out: percentage of enzyme activity that remains
TrkB(h), sequence (Q16620 32-822): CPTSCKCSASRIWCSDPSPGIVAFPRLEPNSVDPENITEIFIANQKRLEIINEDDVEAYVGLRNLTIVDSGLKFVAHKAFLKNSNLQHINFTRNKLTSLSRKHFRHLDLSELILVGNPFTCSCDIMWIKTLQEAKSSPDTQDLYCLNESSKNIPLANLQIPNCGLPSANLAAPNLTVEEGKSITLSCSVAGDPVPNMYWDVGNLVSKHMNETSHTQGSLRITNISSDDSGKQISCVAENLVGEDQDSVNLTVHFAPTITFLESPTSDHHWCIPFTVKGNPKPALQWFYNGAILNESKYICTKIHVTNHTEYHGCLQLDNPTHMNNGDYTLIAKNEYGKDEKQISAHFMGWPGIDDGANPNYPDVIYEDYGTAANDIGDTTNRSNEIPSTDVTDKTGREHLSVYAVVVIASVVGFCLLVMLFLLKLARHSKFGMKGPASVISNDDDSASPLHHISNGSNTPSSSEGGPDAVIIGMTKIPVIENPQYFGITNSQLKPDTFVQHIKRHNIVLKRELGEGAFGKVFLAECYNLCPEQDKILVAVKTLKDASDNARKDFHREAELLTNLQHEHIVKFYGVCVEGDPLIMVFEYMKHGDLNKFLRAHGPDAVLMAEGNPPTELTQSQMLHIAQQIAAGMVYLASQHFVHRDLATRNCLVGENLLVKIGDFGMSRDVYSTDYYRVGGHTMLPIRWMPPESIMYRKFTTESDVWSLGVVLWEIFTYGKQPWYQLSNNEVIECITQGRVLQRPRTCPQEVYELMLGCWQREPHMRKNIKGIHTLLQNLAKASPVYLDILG

PTK5(h) = target: T9, PTK5(h) (Homo sapiens, UniProt P42685); assay: Upstate kinase activity inhibition assay PTK5(h); format: biochemical; settings: 40 min; read-out: percentage of enzyme activity that remains
T9 construct: purchased Upstate (KinaseProfiler service)
T9 sequence (P42685 whole entry): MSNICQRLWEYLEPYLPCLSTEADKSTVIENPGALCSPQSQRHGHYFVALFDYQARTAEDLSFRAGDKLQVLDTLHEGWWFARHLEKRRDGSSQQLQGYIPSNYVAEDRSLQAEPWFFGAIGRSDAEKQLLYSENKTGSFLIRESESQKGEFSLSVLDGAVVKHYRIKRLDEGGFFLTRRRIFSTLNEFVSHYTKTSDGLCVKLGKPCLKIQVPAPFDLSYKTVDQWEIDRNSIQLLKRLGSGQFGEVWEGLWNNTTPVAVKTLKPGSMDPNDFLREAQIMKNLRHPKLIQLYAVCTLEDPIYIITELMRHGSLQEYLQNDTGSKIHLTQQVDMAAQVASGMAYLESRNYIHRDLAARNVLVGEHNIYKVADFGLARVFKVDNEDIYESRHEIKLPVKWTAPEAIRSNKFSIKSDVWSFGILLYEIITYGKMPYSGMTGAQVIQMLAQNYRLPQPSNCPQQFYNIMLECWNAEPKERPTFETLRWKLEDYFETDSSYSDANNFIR

BRK(h) = BRK(h) (Homo sapiens, UniProt Q13882); assay: Upstate kinase activity inhibition assay BRK(h); settings: 40 min, read-out: percentage of enzyme activity that remains
TBK1(h) = TBK1(h) (Homo sapiens, UniProt Q9UHD2); assay: Upstate kinase activity inhibition assay TBK1(h); settings: 40 min, read-out: percentage of enzyme activity that remains
TBK1(h), sequence (Q9UHD2 whole entry): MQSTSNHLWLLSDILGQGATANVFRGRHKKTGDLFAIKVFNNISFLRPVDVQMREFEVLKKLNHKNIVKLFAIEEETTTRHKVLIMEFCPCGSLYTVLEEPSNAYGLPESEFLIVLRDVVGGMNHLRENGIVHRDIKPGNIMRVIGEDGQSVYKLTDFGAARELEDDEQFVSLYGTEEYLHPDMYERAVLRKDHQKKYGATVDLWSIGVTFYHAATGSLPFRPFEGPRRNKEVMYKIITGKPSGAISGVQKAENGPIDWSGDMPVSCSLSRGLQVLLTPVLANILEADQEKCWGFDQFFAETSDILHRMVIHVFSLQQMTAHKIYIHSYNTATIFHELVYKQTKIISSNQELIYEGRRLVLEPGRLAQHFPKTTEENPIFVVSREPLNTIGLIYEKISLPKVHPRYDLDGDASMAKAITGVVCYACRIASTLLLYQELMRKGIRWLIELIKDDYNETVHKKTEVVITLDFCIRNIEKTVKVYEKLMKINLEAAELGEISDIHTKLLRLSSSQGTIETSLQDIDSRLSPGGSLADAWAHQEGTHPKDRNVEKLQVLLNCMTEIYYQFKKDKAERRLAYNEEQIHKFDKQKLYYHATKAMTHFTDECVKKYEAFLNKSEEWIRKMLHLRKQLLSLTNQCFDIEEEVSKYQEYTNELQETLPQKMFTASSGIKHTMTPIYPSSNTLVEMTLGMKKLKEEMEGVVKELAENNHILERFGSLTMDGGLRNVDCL

PKCε(h) = target: T10, PKCε(h) (Homo sapiens, UniProt Q02156); assay: Upstate kinase activity inhibition assay PKCε(h); format: biochemical; settings: 40 min; read-out: percentage of enzyme activity that remains
T10 construct: purchased Upstate (KinaseProfiler service)

EphA5(h) = target: T11, EphA5(h) (Homo sapiens, UniProt P54756); assay: Upstate kinase activity inhibition assay EphA5(h); format: biochemical; settings: 4 μM Compound E
T11 construct: purchased Upstate (KinaseProfiler service)

TSSK2(h) = target: T12, TSSK2(h) (Homo sapiens, UniProt Q96PF2); assay: Upstate kinase activity inhibition assay TSSK2(h); format: biochemical; settings: 40 min; read-out: percentage of enzyme activity that remains
T12 construct: purchased Upstate (KinaseProfiler service)
T12 sequence (Q96PF2 whole entry): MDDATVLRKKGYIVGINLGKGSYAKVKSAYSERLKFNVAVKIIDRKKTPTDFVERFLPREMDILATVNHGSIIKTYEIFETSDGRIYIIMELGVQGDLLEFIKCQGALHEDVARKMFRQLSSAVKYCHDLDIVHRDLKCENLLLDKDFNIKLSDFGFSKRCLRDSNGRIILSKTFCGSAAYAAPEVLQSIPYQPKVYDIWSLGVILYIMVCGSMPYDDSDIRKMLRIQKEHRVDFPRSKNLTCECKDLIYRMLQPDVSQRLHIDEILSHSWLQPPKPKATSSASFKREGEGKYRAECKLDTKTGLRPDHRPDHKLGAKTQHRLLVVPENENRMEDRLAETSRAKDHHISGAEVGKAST

NEK7(h) = NEK7(h) (Homo sapiens, UniProt Q8TDX7); assay: Upstate kinase activity inhibition assay NEK7(h); format: biochemical; settings: 40 min; read-out: percentage of enzyme activity that remains
NEK7(h), sequence (Q8TDX7 whole entry): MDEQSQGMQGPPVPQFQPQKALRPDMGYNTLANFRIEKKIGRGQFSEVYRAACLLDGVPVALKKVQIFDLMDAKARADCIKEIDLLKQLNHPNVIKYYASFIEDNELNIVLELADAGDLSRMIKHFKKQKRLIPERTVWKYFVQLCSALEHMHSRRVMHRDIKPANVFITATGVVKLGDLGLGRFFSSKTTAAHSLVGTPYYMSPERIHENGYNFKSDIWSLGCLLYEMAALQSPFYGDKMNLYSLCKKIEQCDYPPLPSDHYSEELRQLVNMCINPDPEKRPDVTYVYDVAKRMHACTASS

TAK1(h) = TAK1(h) (Homo sapiens, UniProt O43318); assay: Upstate kinase activity inhibition assay TAK1(h); settings: 40 min, read-out: percentage of enzyme activity that remains
Flt3(D835Y)(h) = Flt3(D835Y)(h) (Homo sapiens, UniProt P36888, D835Y); assay: Upstate kinase activity inhibition assay Flt3(D835Y)(h); settings: 40 min, read-out: percentage of enzyme activity that remains
eEF-2K(h) = target: T13, eEF-2K(h) (Homo sapiens, UniProt O00418); assay: Upstate kinase activity inhibition assay eEF-2K(h); format: biochemical; settings: 40 min; read-out: percentage of enzyme activity that remains
T13 construct: purchased Upstate (KinaseProfiler service)

`Cc1cc(Nc2cc(N3CCN(C)CC3)nc(Sc3ccc(NC(=O)C4CC4)cc3)n2)n[nH]1` [Compound E, Cyclopropane carboxylic acid {4-[4-(4-methyl-piperazin-1-yl)-6-(5-methyl-2H-pyrazol-3-ylamino)-pyrimidin-2-ylsulphanyl]-phenyl}-amide] gave a remaining activity at 0.2 µM (Lyn(h)) of 45%, a remaining activity at 4 µM (Lyn(h)) of 3% and a remaining activity at 0.2 µM (IRAK1(h)) of 107%. The remaining activity at 4 µM (IRAK1(h)) was 108%, the remaining activity at 0.2 µM (Fms(h)) was 139% and the remaining activity at 4 µM (Fms(h)) was 54%. For the same molecule, the remaining activity at 0.2 µM (Plk3(h)) was 107%, the remaining activity at 4 µM (Plk3(h)) was 105% and the remaining activity at 4 µM (MRCKβ(h)) was 100%. For the same molecule, the “percentage of enzyme activity that remains” value (LOK(h); 0.2 μM Compound E) was 92%, the “percentage of enzyme activity that remains” value (LOK(h); 4 μM Compound E) was 37% and the “percentage of enzyme activity that remains” value (ITK(h)) was 12%. It also gave a remaining activity at 0.2 µM (EphA8(h)) of 92%, a remaining activity at 0.2 µM (MLCK(h)) of 95% and a remaining activity at 4 µM (MLCK(h)) of 88%. For the same molecule, the remaining activity at 0.2 µM (Rsk2(h)) was 109%, the remaining activity at 4 µM (Rsk2(h)) was 82% and the remaining activity at 0.2 µM (BrSK1(h)) was 115%. The remaining activity at 4 µM (BrSK1(h)) was 97%, the remaining activity at 0.2 µM (Fgr(h)) was 71% and the remaining activity at 4 µM (Fgr(h)) was 12%. For the same molecule, the remaining activity at 0.2 µM (ALK(h)) was 70%, the remaining activity at 4 µM (ALK(h)) was 58% and the “percentage of enzyme activity that remains” value (CDK2/cyclinE(h)) was 125%. For the same molecule, the remaining activity at 0.2 µM (HIPK2(h)) was 107%, the remaining activity at 4 µM (HIPK2(h)) was 110% and the “percentage of enzyme activity that remains” value (SAPK2a(h); 0.2 μM Compound E) was 116%. For the same molecule, the “percentage of enzyme activity that remains” value (SAPK2a(h); 4 μM Compound E) was 123%, the “percentage of enzyme activity that remains” value (CDK2/cyclinA(h)) was 99% and the remaining activity at 0.2 µM (PAK4(h)) was 85%. For the same molecule, the remaining activity at 4 µM (PAK4(h)) was 75%, the remaining activity at 0.2 µM (PKBα(h)) was 110% and the remaining activity at 4 µM (PKBα(h)) was 110%. The remaining activity at 0.2 µM (TrkB(h)) was 71%, the remaining activity at 4 µM (TrkB(h)) was 1% and the remaining activity at 0.2 µM (PTK5(h)) was 97%. It also gave a remaining activity at 4 µM (PTK5(h)) of 54%, a remaining activity at 0.2 µM (BRK(h)) of 102% and a remaining activity at 4 µM (BRK(h)) of 83%. It also gave a remaining activity at 0.2 µM (TBK1(h)) of 106%, a remaining activity at 4 µM (TBK1(h)) of 57% and a remaining activity at 0.2 µM (PKCε(h)) of 98%. For the same molecule, the remaining activity at 4 µM (PKCε(h)) was 96%, the “percentage of enzyme activity that remains” value (EphA5(h)) was 57% and the remaining activity at 0.2 µM (TSSK2(h)) was 0%. It also gave a remaining activity at 4 µM (TSSK2(h)) of 0%, a remaining activity at 0.2 µM (NEK7(h)) of 84% and a remaining activity at 4 µM (NEK7(h)) of 83%. For the same molecule, the remaining activity at 0.2 µM (TAK1(h)) was 99%, the remaining activity at 4 µM (TAK1(h)) was 66% and the remaining activity at 0.2 µM (Flt3(D835Y)(h)) was 50%. For the same molecule, the remaining activity at 4 µM (Flt3(D835Y)(h)) was 7%, the remaining activity at 0.2 µM (eEF-2K(h)) was 91% and the remaining activity at 4 µM (eEF-2K(h)) was 82%.
